Measurements: PMC9610943, “Truncated Pleurocidin Derivative with High Pepsin Hydrolysis Resistance to Combat Multidrug-Resistant Pathogens” (Pharmaceutics, 2022)
Where no end group is shown, it is not given here.

Columns and labels:
MRSA 1530 = assay: microbe, parasite or virus in culture; assay type: cell-based, Staphylococcus aureus; conditions: 1530
Protocol: (§1) S. aureus ATCC 29213, E. coli ATCC 25922, S. enteritidis ATCC 13076 and A. baumannii ATCC 19609 were obtained from the American Type Culture Collection (ATCC). The remaining strains used in the experiment were all preserved strains in our laboratory. All strains were cultured in nutrient broth overnight to the logarithmic phase at 37 °C prior to each experiment.
(§2) The MICs of all drugs were determined by micro-broth dilution method according to CLSI 2018 guidelines. Briefly, a single colony of the bacterial strain was transferred to 1 mL of Mueller Hilton broth (MHB) and overnight at 37 °C and then 10 μL were cultured in a new 1 mL medium for 4 to 6 h, and then the bacterial culture at the logarithmic phase was diluted to 1 × 10^6 CFUs/mL. The assay was performed by adding 100 μL of each peptide solution at various concentrations (0.25 to 128 μg/mL) and 100 μL of diluted bacterial culture to different wells of a 96-well microtiter plate (Corning, NY, USA). After incubation at 37 °C for 16 to 18 h and then read its MIC value. MIC value is defined as the lowest drug concentration without visible bacteria.

MRSA T144 [1] = assay: microbe, parasite or virus in culture; assay type: cell-based, Staphylococcus aureus; conditions: T144
Protocol: as §1, §2

A. baumannii ATCC 19609 = assay: microbe, parasite or virus in culture; assay type: cell-based; conditions: ATCC 19609
Protocol: as §1, §2

E. coli 1F28 (tet(X4)) = assay: microbe, parasite or virus in culture; assay type: cell-based; conditions: 1F28 (tet(X4))
Protocol: as §1, §2

E. coli ATCC 25922 = assay: microbe, parasite or virus in culture; assay type: cell-based; conditions: ATCC 25922
Protocol: as §1, §2

[2] = system: E. coli B2 (blaNDM-5 + mcr-1); assay: microbe, parasite or virus in culture; assay type: cell-based; conditions: B2 (blaNDM-5 + mcr-1)
Protocol: as §1, §2

E. coli B3-1 (tet(X4)) = assay: microbe, parasite or virus in culture; assay type: cell-based; conditions: B3-1 (tet(X4))
Protocol: as §1, §2

E. coli C3 (blaNDM-1) = assay: microbe, parasite or virus in culture; assay type: cell-based; conditions: C3 (blaNDM-1)
Protocol: as §1, §2

E. coli CP131 (mcr-3) = assay: microbe, parasite or virus in culture; assay type: cell-based; conditions: CP131 (mcr-3)
Protocol: as §1, §2

E. coli G6 (blaNDM-5) = assay: microbe, parasite or virus in culture; assay type: cell-based; conditions: G6 (blaNDM-5)
Protocol: as §1, §2

E. coli G92 (mcr-1) = assay: microbe, parasite or virus in culture; assay type: cell-based; conditions: G92 (mcr-1)
Protocol: as §1, §2

[3] = system: E. faecalis A4 (VRE, VanA); assay: microbe, parasite or virus in culture; assay type: cell-based; conditions: A4 (VRE, VanA)
Protocol: as §1, §2

[4] = system: P. aeruginosa (VIM + tmexCD1-torJ1); assay: microbe, parasite or virus in culture; assay type: cell-based; conditions: VIM + tmexCD1-torJ1
Protocol: as §1, §2

P. aeruginosa PA14 = assay: microbe, parasite or virus in culture; assay type: cell-based; conditions: PA14
Protocol: as §1, §2

[5] = system: S. aureus 215 (cfr + LZD^R); assay: microbe, parasite or virus in culture; assay type: cell-based; conditions: S. aureus 215 (cfr + LZD^R); micro-broth dilution CLSI 2018, MHB, 37 °C, 16 to 18 h
Protocol: as §1, §2

S. aureus ATCC 29213 = assay: microbe, parasite or virus in culture; assay type: cell-based; conditions: ATCC 29213
Protocol: as §1, §2

S. aureus G16 (RIF^R) = assay: microbe, parasite or virus in culture; assay type: cell-based; conditions: S. aureus G16 (RIF^R); micro-broth dilution CLSI 2018, MHB, 37 °C, 16 to 18 h
Protocol: as §1, §2

[6] = system: S. enteritidis ATCC 13076; assay: microbe, parasite or virus in culture; assay type: cell-based; conditions: ATCC 13076
Protocol: as §1, §2

[7] = system: P. cibarius HNCF44W (blaNDM-1+ tet(X6)); assay: organism not typed; assay type: cell-based
Protocol: as §1, §2

MRSA T144 [8] = assay type: cell-based, Staphylococcus aureus
Protocol: as §2
(§3) Then, the antibacterial activity of the peptides affected by different temperatures and pH were determined according to the determination steps of MICs test.
(§4) In MHB medium, Na^+, K^+, Mg^2+ and Ca^2+ with the final concentrations of 10 mM, fetal bovine serum, plasma or DMEM medium (Hyclone, Logan, UT, USA) with the final concentrations of 10% was added, and then MIC values were measured to evaluate the effects of different cations, serum and plasma on the antibacterial activity of peptides.
(§5) The peptide was incubated with protease (pepsin, trypsin and papain) (Solarbio, Beijing, China) with a final concentration of 1 mg/mL at 37 °C for 1 h, then the mixture of peptide and protease was heated at 100 °C for 30 min, then centrifuged at 13,000× g for 30 min, and the supernatant was taken for MIC determination.

E. coli B2 = assay type: cell-based
Protocol: as §2, §3, §4, §5

GWKSFFKKWKHVWK [GK-2]
MIC (MRSA 1530): 32 µg/mL | MIC (MRSA T144 [1]): 8 µg/mL | MIC (A. baumannii ATCC 19609): 8 µg/mL | MIC (E. coli 1F28 (tet(X4))): 16 µg/mL | MIC (E. coli ATCC 25922): 8 µg/mL | MIC [2]: 2 µg/mL | MIC (E. coli B3-1 (tet(X4))): 4 µg/mL | MIC (E. coli C3 (blaNDM-1)): 2 µg/mL | MIC (E. coli CP131 (mcr-3)): 2 µg/mL | MIC (E. coli G6 (blaNDM-5)): 2 µg/mL | MIC (E. coli G92 (mcr-1)): 2 µg/mL | MIC [3]: 16 µg/mL | MIC [4]: 16 µg/mL | MIC (P. aeruginosa PA14): 16 µg/mL | MIC [5]: 4 µg/mL | MIC (S. aureus ATCC 29213): 4 µg/mL | MIC (S. aureus G16 (RIF^R)): 8 µg/mL | MIC [6]: 4 µg/mL | MIC [7]: 8 µg/mL | MIC after treatment at 121 °C (MRSA T144 [8]; T144): 4 µg/mL | MIC in DMEM (10%) (MRSA T144 [8]; T144): 4 µg/mL | MIC in Plasma (10%) (MRSA T144 [8]; T144): 4 µg/mL | MIC in Serum (10%) (MRSA T144 [8]; T144): 8 µg/mL | MIC in presence of Ca^2+ (MRSA T144 [8]; T144): >128 µg/mL | MIC in presence of K^+ (MRSA T144 [8]; T144): 4 µg/mL | MIC in presence of Mg^2+ (MRSA T144 [8]; T144): 4 µg/mL | MIC in presence of Na^+ (MRSA T144 [8]; T144): 2 µg/mL | MIC, Control (MRSA T144 [8]; T144): 8 µg/mL | MIC after Papain treatment (MRSA T144 [8]; T144, 1 h): >128 µg/mL | MIC after Pepsin treatment (MRSA T144 [8]; T144, 1 h): 64 µg/mL | MIC after Trypsin treatment (MRSA T144 [8]; T144, 1 h): >128 µg/mL | MIC after treatment at 40 °C (MRSA T144 [8]; T144, 1 h): 2 µg/mL | MIC after treatment at 60 °C (MRSA T144 [8]; T144, 1 h): 4 µg/mL | MIC after treatment at 80 °C (MRSA T144 [8]; T144, 1 h): 2 µg/mL | MIC after treatment at 100 °C (MRSA T144 [8]; T144, 1 h): 4 µg/mL | MIC after treatment at pH 2 (MRSA T144 [8]; T144, 1 h, pH 2): 4 µg/mL | MIC after treatment at pH 4 (MRSA T144 [8]; T144, 1 h, pH 4): 4 µg/mL | MIC after treatment at pH 6 (MRSA T144 [8]; T144, 1 h, pH 6): 4 µg/mL | MIC after treatment at pH 8 (MRSA T144 [8]; T144, 1 h, pH 8): 4 µg/mL | MIC after treatment at pH 10 (MRSA T144 [8]; T144, 1 h, pH 10): 4 µg/mL | MIC after treatment at pH 12 (MRSA T144 [8]; T144, 1 h, pH 12): 4 µg/mL | MIC after treatment at 121 °C (E. coli B2; B2): 2 µg/mL | MIC in DMEM (10%) (E. coli B2; B2): 4 µg/mL | MIC in Plasma (10%) (E. coli B2; B2): 0.5 µg/mL | MIC in Serum (10%) (E. coli B2; B2): 4 µg/mL | MIC in presence of Ca^2+ (E. coli B2; B2): >128 µg/mL | MIC in presence of K^+ (E. coli B2; B2): 2 µg/mL | MIC in presence of Mg^2+ (E. coli B2; B2): 32 µg/mL | MIC in presence of Na^+ (E. coli B2; B2): 2 µg/mL | MIC, Control (E. coli B2; B2): 2 µg/mL | MIC after Papain treatment (E. coli B2; B2, 1 h): >128 µg/mL | MIC after Pepsin treatment (E. coli B2; B2, 1 h): 128 µg/mL | MIC after Trypsin treatment (E. coli B2; B2, 1 h): >128 µg/mL | MIC after treatment at 40 °C (E. coli B2; B2, 1 h): 2 µg/mL | MIC after treatment at 60 °C (E. coli B2; B2, 1 h): 4 µg/mL | MIC after treatment at 80 °C (E. coli B2; B2, 1 h): 2 µg/mL | MIC after treatment at 100 °C (E. coli B2; B2, 1 h): 2 µg/mL | MIC after treatment at pH 2 (E. coli B2; B2, 1 h, pH 2): 2 µg/mL | MIC after treatment at pH 4 (E. coli B2; B2, 1 h, pH 4): 4 µg/mL | MIC after treatment at pH 6 (E. coli B2; B2, 1 h, pH 6): 2 µg/mL | MIC after treatment at pH 8 (E. coli B2; B2, 1 h, pH 8): 2 µg/mL | MIC after treatment at pH 10 (E. coli B2; B2, 1 h, pH 10): 2 µg/mL | MIC after treatment at pH 12 (E. coli B2; B2, 1 h, pH 12): 2 µg/mL
